Tested on: RPMI-8226, RPMI-8226-R5 (a drug resistant cell line) cells
Format: cell-based, human
Conditions: treated in vitro for 72 h; RT-PCR
Procedure: Drug resistance is a critical characteristic of TICs^43. To examine whether CD24^+ cells show higher resistance to chemotherapeutic drugs, the soft agar clonogenic formation assay was employed to examine the response to multiple drugs. […] The ARP1 cells from the 1st passage were collected and re-plated in methylcellulose dishes. CD24^+ and CD24^− ARP1 MM cells in the 2nd passage were treated with bortezomib (2 and 10 nM) or carfilzomib (2.5 and 12.5 nM) or melphalan (2.5 and 12.5 μM) for 2 weeks. CD24^+ ARP1 (FIGS. 5A & 5B) or OCI-MY5 (FIGS. 5C & 5D) MM cells were more pronounced resistant (>2.5-fold) than CD24^− ARP1 or OCI-MY5 MM cells. To directly confirm whether CD24^+ population are enriched upon chemotherapy, we treated RPMI-8226, RPMI-8226-R5 (a drug resistant cell line) cells with bortezmib or melphalan in vitro for 72 h (data not shown).

| Structure (SMILES) | expression of CD24 in survival cells compared to untreated MM cells |
| --- | --- |
| CC(C)C[C@H](NC(=O)[C@H](Cc1ccccc1)NC(=O)c1cnccn1)B(O)O [bortezomib] | upregulated |
| N[C@@H](Cc1ccc(N(CCCl)CCCl)cc1)C(=O)O [melphalan] | upregulated |
